Laboratory results taken from patent publication US9708314B2, “Heterocyclic amide compound” (NISSAN CHEMICAL INDUSTRIES, LTD., priority 2013, dated 2017).

Tests used:
Type in all cases: in vivo
[1] = tested on: directly sowed Oryza sativa; experiment: Test Example 3: effect on crop by application to foliage (Wagner pot, water depth 0.1-0.5 cm); details: Nineteenth Table; application to foliage; application herbicide amount 320 g/ha
Method in brief: (§1)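 Seeds were sown in alluvial soil in Wagner pots, grown for 14 days at 25–30 °C, then sprayed uniformly on foliage with the emulsified compound diluted to a given rate per hectare. Injury was graded three weeks after treatment from 0 (≤5%) to 5 (≥90%).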

[2] = tested on: Lolium multiflorum Lam.; experiment: Test Example 4: herbicidal effect by application to foliage (diluvial soil, plastic box); details: application to foliage, 320 g/ha
Method in brief: (§2)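 Greenhouse plants (25° C. to 30° C., 14 d, diluvial soil) receive a foliar spray of water-diluted emulsifiable formulation at defined g/ha. Grading after 3 weeks uses a six-step herbicidal-ratio scale, with 4 covering 70% to <90% and 1 covering 5% to <20%.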

[3] = tested on: Apera spica-venti.; experiment: as above; details: application to foliage, 320 g/ha
Method in brief: as §2

[4] = tested on: Veronica persica; experiment: as above; details: application to foliage, 320 g/ha
Method in brief: as §2

[5] = tested on: Avena fatua; experiment: as above; details: application to foliage, 320 g/ha
Method in brief: as §2

[6] = tested on: Chenopodium album; experiment: as above; details: application to foliage, 320 g/ha
Method in brief: as §2

[7] = tested on: Echinochloa crus-galli var. crus-galli; experiment: as above; details: application to foliage, 320 g/ha
Method in brief: as §2

[8] = tested on: Amaranthus retroflexus; experiment: as above; details: application to foliage, 320 g/ha
Method in brief: as §2

[9] = tested on: Abutilon theophrasti; experiment: as above; details: application to foliage, 320 g/ha
Method in brief: as §2

[10] = tested on: Alopecurus myosuroides; experiment: as above; details: application to foliage, 320 g/ha
Method in brief: as §2

[11] = tested on: Stellaria media; experiment: as above; details: application to foliage, 320 g/ha
Method in brief: as §2

[12] = tested on: Setaria viridis; experiment: as above; details: application to foliage, 320 g/ha
Method in brief: as §2

[13] = tested on: Digitaria ciliaris; experiment: as above; details: application to foliage, 320 g/ha
Method in brief: as §2

[14] = tested on: Galium spurium; experiment: as above; details: application to foliage, 320 g/ha
Method in brief: as §2

[15] = tested on: Echinochloa crus-galli var. crus-galli; experiment: Test Example 3: herbicidal effect by application to foliage (Wagner pot, water depth 0.1-0.5 cm); details: Nineteenth Table; application to foliage; application herbicide amount 320 g/ha
Method in brief: as §1

[16] = tested on: Leptochloa chinensis; experiment: as above; details: Nineteenth Table; application to foliage; application herbicide amount 320 g/ha
Method in brief: as §1

[17] = tested on: Cyperus difformis; experiment: as above; details: Nineteenth Table; application to foliage; application herbicide amount 320 g/ha
Method in brief: as §1

## Cn1nnnc1NC(=O)c1ccc(C(F)(F)F)n2c(=O)n(C)nc12 [6-002]
[1]
  b (effect on crop grade): 0 (Herbicidal ratio of 5% or less (almost no effect))
[2]
  herbicidal effect, K (Lolium multiflorum Lam.): 0 (Herbicidal ratio of 5% or less (almost no effect))
[3]
  herbicidal effect, L (Apera spica-venti.): 0 (Herbicidal ratio of 5% or less (almost no effect))
[4]
  herbicidal effect, R (Veronica persica): 4 (Herbicidal ratio of 70% or more and less than 90%)
[5]
  herbicidal effect, I (Avena fatua): 1 (Herbicidal ratio of 5% or more and less than 20%)
[6]
  herbicidal effect, O (Chenopodium album): 5 (Herbicidal ratio of 90% or more (almost completely withered))
[7]
  herbicidal effect, H (Echinochloa crus-galli var. crus-galli): 5 (Herbicidal ratio of 90% or more (almost completely withered))
[8]
  herbicidal effect, N (Amaranthus retroflexus): 5 (Herbicidal ratio of 90% or more (almost completely withered))
[9]
  herbicidal effect, M (Abutilon theophrasti): 5 (Herbicidal ratio of 90% or more (almost completely withered))
[10]
  herbicidal effect, J (Alopecurus myosuroides): 0 (Herbicidal ratio of 5% or less (almost no effect))
[11]
  herbicidal effect, P (Stellaria media): 5 (Herbicidal ratio of 90% or more (almost completely withered))
[12]
  herbicidal effect, G (Setaria viridis): 3 (Herbicidal ratio of 40% or more and less than 70%)
[13]
  herbicidal effect, F (Digitaria ciliaris): 4 (Herbicidal ratio of 70% or more and less than 90%)
[14]
  herbicidal effect, Q (Galium spurium): 3 (Herbicidal ratio of 40% or more and less than 70%)
[15]
  H (herbicidal effect grade): 5 (Herbicidal ratio of 90% or more (almost completely withered))
[16]
  D (herbicidal effect grade): 5 (Herbicidal ratio of 90% or more (almost completely withered))
[17]
  E (herbicidal effect grade): 4 (Herbicidal ratio of 70% or more and less than 90%)

## CCn1nc2c(C(=O)Nc3nnnn3C)ccc(C(F)(F)F)n2c1=O [6-004]
[1]
  b (effect on crop grade): 3 (Herbicidal ratio of 40% or more and less than 70%)
[2]
  herbicidal effect, K (Lolium multiflorum Lam.): 2 (Herbicidal ratio of 20% or more and less than 40%)
[3]
  herbicidal effect, L (Apera spica-venti.): 1 (Herbicidal ratio of 5% or more and less than 20%)
[4]
  herbicidal effect, R (Veronica persica): 3 (Herbicidal ratio of 40% or more and less than 70%)
[5]
  herbicidal effect, I (Avena fatua): 3 (Herbicidal ratio of 40% or more and less than 70%)
[6]
  herbicidal effect, O (Chenopodium album): 5 (Herbicidal ratio of 90% or more (almost completely withered))
[7]
  herbicidal effect, H (Echinochloa crus-galli var. crus-galli): 5 (Herbicidal ratio of 90% or more (almost completely withered))
[8]
  herbicidal effect, N (Amaranthus retroflexus): 5 (Herbicidal ratio of 90% or more (almost completely withered))
[9]
  herbicidal effect, M (Abutilon theophrasti): 5 (Herbicidal ratio of 90% or more (almost completely withered))
[10]
  herbicidal effect, J (Alopecurus myosuroides): 1 (Herbicidal ratio of 5% or more and less than 20%)
[11]
  herbicidal effect, P (Stellaria media): 4 (Herbicidal ratio of 70% or more and less than 90%)
[12]
  herbicidal effect, G (Setaria viridis): 4 (Herbicidal ratio of 70% or more and less than 90%)
[13]
  herbicidal effect, F (Digitaria ciliaris): 5 (Herbicidal ratio of 90% or more (almost completely withered))
[14]
  herbicidal effect, Q (Galium spurium): 4 (Herbicidal ratio of 70% or more and less than 90%)
[15]
  H (herbicidal effect grade): 4 (Herbicidal ratio of 70% or more and less than 90%)
[16]
  D (herbicidal effect grade): 5 (Herbicidal ratio of 90% or more (almost completely withered))
[17]
  E (herbicidal effect grade): 2 (Herbicidal ratio of 20% or more and less than 40%)

## CC(C)c1nc2c(C(=O)Nc3nnnn3C)ccc(C(F)(F)F)n2n1 [7-002]
[1]
  b (effect on crop grade): 0 (Herbicidal ratio of 5% or less (almost no effect))
[2]
  herbicidal effect, K (Lolium multiflorum Lam.): 0 (Herbicidal ratio of 5% or less (almost no effect))
[3]
  herbicidal effect, L (Apera spica-venti.): 0 (Herbicidal ratio of 5% or less (almost no effect))
[4]
  herbicidal effect, R (Veronica persica): 3 (Herbicidal ratio of 40% or more and less than 70%)
[5]
  herbicidal effect, I (Avena fatua): 1 (Herbicidal ratio of 5% or more and less than 20%)
[6]
  herbicidal effect, O (Chenopodium album): 5 (Herbicidal ratio of 90% or more (almost completely withered))
[7]
  herbicidal effect, H (Echinochloa crus-galli var. crus-galli): 4 (Herbicidal ratio of 70% or more and less than 90%)
[8]
  herbicidal effect, N (Amaranthus retroflexus): 4 (Herbicidal ratio of 70% or more and less than 90%)
[9]
  herbicidal effect, M (Abutilon theophrasti): 3 (Herbicidal ratio of 40% or more and less than 70%)
[10]
  herbicidal effect, J (Alopecurus myosuroides): 0 (Herbicidal ratio of 5% or less (almost no effect))
[11]
  herbicidal effect, P (Stellaria media): 4 (Herbicidal ratio of 70% or more and less than 90%)
[12]
  herbicidal effect, G (Setaria viridis): 2 (Herbicidal ratio of 20% or more and less than 40%)
[13]
  herbicidal effect, F (Digitaria ciliaris): 3 (Herbicidal ratio of 40% or more and less than 70%)
[14]
  herbicidal effect, Q (Galium spurium): 3 (Herbicidal ratio of 40% or more and less than 70%)
[15]
  H (herbicidal effect grade): 4 (Herbicidal ratio of 70% or more and less than 90%)
[16]
  D (herbicidal effect grade): 4 (Herbicidal ratio of 70% or more and less than 90%)
[17]
  E (herbicidal effect grade): 4 (Herbicidal ratio of 70% or more and less than 90%)
